Experimental data taken from PubChem BioAssay (NCI).
“And” between values parts separate entries of the source, which are not always exact repeats. Equal values may be shown once.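 Compound exposure: 48 hours, 5 concentrations, 96-well plates. Here, GI50 denotes the concentration required for 50% inhibition of growth. TGI is the concentration that stops growth completely.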 The source made the active and inactive calls. Rule as the data show it: active = GI50 below about 0.43 µM; inactive = the rest.

Experiments:
Test in all cases: NCI tumour cell line growth inhibition, 48 h
MDA-MB-231 breast = test system: MDA-MB-231 breast
SNB-75 CNS = test system: SNB-75 CNS
K-562 leukemia = test system: K-562 leukemia
HOP-18 NSCLC = test system: HOP-18 NSCLC
COLO 205 colon = test system: COLO 205 colon
CAKI-1 renal = test system: CAKI-1 renal
CCRF-CEM leukemia = test system: CCRF-CEM leukemia
U251 CNS = test system: U251 CNS
ACHN renal = test system: ACHN renal
KM12 colon = test system: KM12 colon
M19-MEL melanoma = test system: M19-MEL melanoma
MDA-MB-435 = test system: MDA-MB-435
A498 renal = test system: A498 renal
SK-MEL-28 melanoma = test system: SK-MEL-28 melanoma
HS 578T breast = test system: HS 578T breast
MALME-3M melanoma = test system: MALME-3M melanoma
DMS 273 small cell lung = test system: DMS 273 small cell lung
HOP-92 NSCLC = test system: HOP-92 NSCLC
MDA-N = test system: MDA-N
HCC-2998 colon = test system: HCC-2998 colon
SK-MEL-2 melanoma = test system: SK-MEL-2 melanoma
OVCAR-4 ovarian = test system: OVCAR-4 ovarian
NCI-H23 lung = test system: NCI-H23 lung
IGROV1 ovarian = test system: IGROV1 ovarian
UACC-257 melanoma = test system: UACC-257 melanoma
SF-268 CNS = test system: SF-268 CNS
M14 melanoma = test system: M14 melanoma
SF-539 CNS = test system: SF-539 CNS
SNB-19 CNS = test system: SNB-19 CNS

## COc1cccc2c1C(=O)c1c(O)c3c(c(O)c1C2=O)C[C@@](O)(C(=O)CO)C[C@@H]3OC1CC(N)C(O)C(C)O1 (stereo not given in full)
MDA-MB-231 breast
  TGI: 4.83 µM [middle of 4 runs]
  outcome: inactive
SNB-75 CNS
  GI50: 245 nM
  outcome: inactive
K-562 leukemia
  GI50: 218 nM
  outcome: inactive
HOP-18 NSCLC
  TGI: 13600 nM
COLO 205 colon
  GI50: 498 nM
  outcome: inactive
CAKI-1 renal
  outcome: inactive
CCRF-CEM leukemia
  outcome: inactive
U251 CNS
  outcome: inactive
ACHN renal
  GI50: 105 nM and 81 nM and 176 nM
  outcome: inactive
KM12 colon
  outcome: inactive
M19-MEL melanoma
  TGI: 974 nM
MDA-MB-435
  GI50: 607 nM
  TGI: 1.87 µM [middle of 4 runs]
  outcome: inactive
A498 renal
  GI50: 81.4 nM and 195 nM
  TGI: 550 nM and 696 nM
  outcome: inactive
SK-MEL-28 melanoma
  GI50: 593 nM
  TGI: 1.7 µM [middle of 4 runs]
  outcome: inactive
HS 578T breast
  GI50: < 10 nM
  outcome: inactive
MALME-3M melanoma
  GI50: 136 nM
  TGI: 628 nM [middle of 5 runs]
  outcome: inactive
DMS 273 small cell lung
  TGI: 2450 nM
HOP-92 NSCLC
  GI50: 306 nM
  outcome: inactive
MDA-N
  TGI: 1110 nM and 1880 nM and 1410 nM
  outcome: inactive
HCC-2998 colon
  outcome: inactive
SK-MEL-2 melanoma
  outcome: inactive
OVCAR-4 ovarian
  TGI: 5.19 µM [middle of 4 runs]
  outcome: inactive
NCI-H23 lung
  outcome: inactive
IGROV1 ovarian
  GI50: 272 nM
  outcome: inactive
UACC-257 melanoma
  outcome: inactive
SF-268 CNS
  GI50: 219 nM
  outcome: inactive
M14 melanoma
  GI50: 432 nM
  outcome: inactive
SF-539 CNS
  GI50: 191 nM
  outcome: inactive
SNB-19 CNS
  outcome: inactive
